In patent US5017574A, “Novel imidazobenzodiazepines” (Roussel Uclaf, priority 1989, dated 1991):

Experiments:
benzodiazepine receptors [1] = experiment: Affinity for benzodiazepine receptors: inhibition of specific 3H-flunitrazepam binding (Test 1); conditions: 0.6×10^-9 mol 3H-flunitrazepam; membranes from the rear portion of the rat brain; read-out: Test 1: concentration which inhibited 50% of the specific binding of 3H-labelled flunitrazepam (IC50)
Procedure: The affinity of the active ingredients for the benzodiazepine receptors was measured using a radioactively labelled (^3 H) compound, flunitrazepam, in a modified version of the method of Squires et al (Nature, 1977, Vol. 266, p. 732). The values given in Table 2 below are the concentration (mol×10^-9) of the test compound which inhibited 50% of the specific binding of 0.6×10^-9 mol of ^3 H-labelled flunitrazepam in preparation of membranes from the rear portion of the brain in rats (IC50 values).

benzodiazepine receptors [2] = experiment: In vivo binding to benzodiazepine receptors (Test 2); conditions: ip
Procedure: Measurement of in vivo binding to benzodiazepine receptors was carried out according to the method described by Goeders at al., Life Sciences (1985) Vol. 37, p. 345.

Row | SMILES | IC50 (benzodiazepine receptors [1]) [µM] | Test 2: ED50, in vivo binding to benzodiazepine receptors (benzodiazepine receptors [2]) [mg/kg]
1 | CN1Cc2c(C3OCCO3)ncn2-c2ccccc2C1=O [Example 1, 5,6-dihydro-3-(1,3-dioxolan-2-yl)-5-methyl-imidazo[1,5-a][1,4]benzodiazepine-6(4H)-one] | 1.07 | 1.0
2 | CN1Cc2c(C3SCCS3)ncn2-c2ccccc2C1=O [Example 2, 5,6-dihydro-3-(1,3-dithiolan-2-yl)-5-methyl-imidazo[1,5-a][1,4]benzodiazepine-6(4H)-one] | 0.094 | 7.0
3 | CN1Cc2c(C3OCCO3)ncn2-c2cccc(C(F)(F)F)c2C1=O [Example 3, 5,6-dihydro-3-(1,3-dioxolan-2-yl)-5-methyl-7-trifluoromethyl-imidazo[1,5-a][1,4]benzodiazepine-6(4H)-one] | 0.073 | 0.09
4 | CN1Cc2c(C3OCCS3)ncn2-c2cccc(C(F)(F)F)c2C1=O (stereo not drawn) [Example 4, 5,6-dihydro-5-methyl-3-(1,3-oxathiolan-2-yl)-7-trifluoromethyl-imidazo[1,5-a][1,4]benzodiazepine-6(4H)-one] | 0.01 | 0.08
5 | CN1Cc2c(C3OCCS3)ncn2-c2ccccc2C1=O (stereo not drawn) [Example 5, 5,6-dihydro-5-methyl-3-(1,3-oxathiolan-2-yl)-imidazo[1,5-a][1,4]benzodiazepine-6(4H)-one] | 0.339 | 0.8
6 | CN1Cc2c(C3OCCS3)ncn2-c2cccc(F)c2C1=O (stereo not drawn) [Example 6, 5,6-dihydro-7-fluoro-5-methyl-3-(1,3-oxathiolan-2-yl)-imidazo[1,5-a][1,4]benzodiazepine-6(4H)-one] | 0.036 | 0.22
